From US9302999B2, “Substituted triazoles as herbicides” (E. I. DU PONT DE NEMOURS AND COMPANY, priority 2012, dated 2016)

Legend:
Type in all cases: in vivo
[1] = system: canarygrass (Phalaris minor); assay: Test D pre-/postemergence: canarygrass
Outline: (§1)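 Scores run from 0 (no effect) to 100 (complete control), assigned by visual comparison with controls after 14 to 21 days in a controlled environment. Both preemergence application to silt loam and postemergence application to 1- to 4-leaf plants were tested.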

[2] = system: field poppy (Papaver rhoeas); assay: Test D pre-/postemergence: field poppy
Outline: as §1

[3] = system: deadnettle (henbit deadnettle, Lamium amplexicaule); assay: Test D pre-/postemergence: deadnettle
Outline: as §1

[4] = system: lambsquarters (Chenopodium album); assay: Test D pre-/postemergence: lambsquarters
Outline: as §1

[5] = system: corn (Zea mays); assay: Test F pre-/postemergence: corn
Outline: (§2)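 0–100 visual control scores, taken 14–21 d after application in the greenhouse. Preemergence treatment was made to silt loam soil at sowing. Postemergence sprays hit 1- to 4-leaf plants (2–18 cm) in peat/vermiculite mix. Surfactant-containing non-phytotoxic solvent served as the vehicle.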

[6] = system: crabgrass, large (large crabgrass, Digitaria sanguinalis); assay: Test F pre-/postemergence: crabgrass, large; conditions: Preemergence
Outline: as §2

[7] = system: arrowleaf sida (Sida rhombifolia); assay: Test F pre-/postemergence: arrowleaf sida
Outline: as §2

[8] = Postemergence, 31 g ai/ha, scale 0 to 100 (0 no effect, 100 complete control)
[9] = Postemergence, 62 g ai/ha, scale 0 to 100 (0 no effect, 100 complete control)
[10] = Postemergence, 125 g ai/ha, scale 0 to 100, 0 no effect, 100 complete control
[11] = Postemergence, 16 g ai/ha, scale 0 to 100
[12] = Preemergence, 16 g ai/ha, scale 0 to 100, 0 no effect, 100 complete control
[13] = Preemergence, 31 g ai/ha, scale 0 to 100, 0 no effect, 100 complete control
[14] = Preemergence, 62 g ai/ha, scale 0 to 100
[15] = Preemergence, 125 g ai/ha, scale 0 to 100
[16] = Postemergence, 8 g ai/ha, scale 0 to 100
[17] = Postemergence, 31 g ai/ha, scale 0 to 100
[18] = Postemergence, 62 g ai/ha, scale 0 to 100
[19] = Postemergence, 125 g ai/ha, scale 0 to 100
[20] = Preemergence, 8 g ai/ha, scale 0 to 100, 0 no effect, 100 complete control

CCOc1nn(-c2ccc(F)cc2)nc1Cc1ccnc(C(F)(F)F)c1 [Compound 196, 4-[[5-ethoxy-2-(4-fluorophenyl)-2H-1,2,3-triazol-4-yl]methyl]-2-(trifluoromethyl)pyridine]
15: Plant response rating, Corn [5, 16] | Plant response rating, Corn [5, 11] | Plant response rating, Arrowleaf Sida [7, 13] | Plant response rating, Arrowleaf Sida [7, 14] | Plant response rating, Arrowleaf Sida [7, 15]
0: Plant response rating, Corn [5, 20] | Plant response rating, Corn [5, 12] | Plant response rating, Corn [5, 13] | Plant response rating, Arrowleaf Sida [7, 20] | Plant response rating, Arrowleaf Sida [7, 12]
85: Plant response rating: Canarygrass [1, 10] | Plant response rating, Deadnettle [3, 11] | Plant response rating, Lambsquarters [4, 11]
20: Plant response rating, Corn [5, 17] | Plant response rating, Corn [5, 18]
100: Plant response rating, Canarygrass [1, 13] | Plant response rating, Canarygrass [1, 14] | Plant response rating, Canarygrass [1, 15] | Plant response rating: Field Poppy [2, 8] | Plant response rating: Field Poppy [2, 9] | Plant response rating: Field Poppy [2, 10] | Plant response rating, Field Poppy [2, 11] | Plant response rating, Field Poppy [2, 14] | Plant response rating, Field Poppy [2, 15] | Plant response rating: Deadnettle [3, 8] | Plant response rating: Deadnettle [3, 9] | Plant response rating: Deadnettle [3, 10] | Plant response rating, Deadnettle [3, 14] | Plant response rating, Deadnettle [3, 15] | Plant response rating, Lambsquarters [4, 14] | Plant response rating, Lambsquarters [4, 15] | Plant response rating, Crabgrass, Large ([6]; 31 g ai/ha, scale 0 to 100, 0 no effect, 100 complete control) | Plant response rating, Crabgrass, Large ([6]; 62 g ai/ha, scale 0 to 100) | Plant response rating, Crabgrass, Large ([6]; 125 g ai/ha, scale 0 to 100)
55: Plant response rating, Lambsquarters [4, 12]
95: Plant response rating, Field Poppy [2, 12] | Plant response rating: Lambsquarters [4, 10] | Plant response rating, Arrowleaf Sida [7, 18] | Plant response rating, Arrowleaf Sida [7, 19]
5: Plant response rating, Corn [5, 14]
80: Plant response rating: Canarygrass [1, 9] | Plant response rating, Arrowleaf Sida [7, 16]
40: Plant response rating, Canarygrass [1, 12] | Plant response rating, Deadnettle [3, 13]
25: Plant response rating, Corn [5, 19]
30: Plant response rating, Canarygrass [1, 11] | Plant response rating, Corn [5, 15]
65: Plant response rating, Lambsquarters [4, 13]
10: Plant response rating, Deadnettle [3, 12]
70: Plant response rating: Canarygrass [1, 8]
90: Plant response rating, Field Poppy [2, 13] | Plant response rating: Lambsquarters [4, 8] | Plant response rating: Lambsquarters [4, 9] | Plant response rating, Arrowleaf Sida [7, 11] | Plant response rating, Arrowleaf Sida [7, 17]
75: Plant response rating, Crabgrass, Large ([6]; 16 g ai/ha, scale 0 to 100, 0 no effect, 100 complete control)
